Measured values taken from a melting point compilation (Tetko et al.; mined from patent text by program, amines drawn as free bases though some values may be those of a salt).

Row | SMILES | melting point
1 | CC(=O)Nc1ccc(N2CCN(Cc3ncc(-c4ccccc4)o3)CC2)cc1 | 196 to 197 °C
2 | NC(=O)C(N)CC(=O)N[C@@H]1CN2C(=O)N(c3cc(Cl)nc(Cl)c3)C(=O)[C@@]2(Cc2ccc(OC(F)(F)F)cc2)C1 (stereo partly drawn) | 108 °C
3 | CC(=O)C1C(=O)CC(CCS(=O)c2ccc(C(F)(F)F)cc2)CC1=O (stereo not drawn) | 99 to 100 °C
4 | Cc1ccnc(C(=O)c2[nH]c3cc(Cl)c(F)cc3c2CC(=O)O)c1 | 220 °C
5 | N#Cc1nc(N)c(-c2ccccc2)nc1C#N | 167 to 168 °C
6 | Oc1ccc(-c2ccc(-c3ccc(F)cc3)nc2-c2ccc(OCCN3CCCCC3)cc2)cc1 | 194 to 195 °C
7 | C=C(C)C(=O)Nc1cccc(O)c1 | 171 to 173 °C
8 | O=c1ccc(-c2ccc(OCC(O)CN3CCCCC3)cc2)n[nH]1 (stereo not drawn) | 185 °C
9 | CC(=O)OC1CSC(Oc2ccc(-c3cccnc3F)nc2)C(OC(C)=O)C1OC(C)=O (stereo not drawn) | 153 °C
10 | COc1ccc(-c2c3c(cc4ccc(OCc5ccccc5)cc24)C(=O)NC3=O)cc1 | 208 to 210 °C
11 | CO/C=C(/C(=O)OC)c1ccccc1COc1cccc(Cl)n1 | 91 to 92 °C
12 | CCOC(=O)C1(c2ccccc2)CCN(CC(=O)O)CC1 | 148 to 150 °C
13 | CC(CCNC(=O)C(C#N)=Cc1ccc(O)c(O)c1)NC(=O)C(C#N)=Cc1ccc(O)c(O)c1 (stereo not drawn) | 281 °C
14 | COc1ccc(C2CC3(C)C(C=CC3(C)O)C3CCC4=CC(=O)CCC4C23)cc1 (stereo not drawn) | 192 °C
15 | CCOCCOc1c(C)cc(-c2ccc3c(c2)C=C(C(=O)Nc2ccc(CN(C)C4CCOCC4)cc2)CCS3(=O)=O)cc1C | 211 to 212 °C
16 | COc1cc2c(cc1OC)-c1c(-c3nc(C)no3)c(-c3cc(C)c(O)c(C)c3)c(C)n1CC2 | 218 to 221 °C
17 | COc1ccc(C=CC(=O)c2cccc([N+](=O)[O-])c2)c(OC)c1 | 88.1 to 88.7 °C
18 | CC(C)COc1ccc2c(c1)CCC1C2=CCC2(C)C(=O)CCC12 (stereo not drawn) | 107 to 108 °C
19 | CC(=O)Nc1ccccc1S(=O)(=O)NCCCCN1CCN(c2ncccn2)CC1 | 99 °C
20 | O=C(c1ccc(Cl)cc1Cl)N1CCC(=NO)c2ccc(Cl)cc21 | 231 to 232 °C

Row | SMILES | melting point
21 | N=C(NO)c1ncn2c(C(F)(F)F)cc(-c3ccc(C(F)(F)F)cc3)nc12 | 213 °C
22 | CC(=O)c1ccc2c(c1)Sc1ccccc1O2 | 112 °C
23 | COc1cc(CN2C(=O)C3(COc4cc5c(cc43)OCCO5)c3ccccc32)cc(OC)c1 (stereo not drawn) | 192 to 195 °C
24 | O=C(O)C1=CCCN(Cc2ccc(Cl)c(Cl)c2)C1 | 240 to 245 °C
25 | O=C1C=C(Br)C(=CBr)O1 | 97 to 98 °C
26 | O=C(O)c1ccc(C(F)F)s1 | 111 to 112 °C
27 | O=C(N[C@@H](CO)C(=O)NCCCCOC1CCCCC1)c1ccc(C(=O)c2cccnc2)cc1 | 55 to 61 °C
28 | CC(C)C[C@H](NC(=S)Nc1ccccc1)C(=O)N[C@H]1CCOC1O (stereo partly drawn) | 62 to 63.8 °C
29 | CC(=O)N(O)C(C)c1ccc(C#Cc2cccs2)cc1 (stereo not drawn) | 128 to 129 °C
30 | O=C(NCCNCc1cc2cc(OCc3ccccc3)ccc2o1)C12CC3CC(CC(C3)C1)C2 | 169 to 170 °C
31 | CCCOc1ccc(-c2scc(-c3ccccc3)c2CC(=O)NC(=N)N)cc1 | 94 to 95 °C
32 | Cc1ccc(Nc2nc(-c3c(-c4ccccc4)noc3C)cs2)nc1 | 267 to 269 °C
33 | Cn1ncc2[nH]c3ccc(Cc4cccc([N+](=O)[O-])c4)cc3c(=O)c21 | 279 to 283 °C
34 | O=C(NC(Cc1cccc(Cl)c1)C(=O)N1CCSC1)c1cc2cc(Cl)ccc2[nH]1 (stereo not drawn) | 188 to 190 °C
35 | CC(=O)NC[C@H]1CN(c2ccc(N3CCS(=O)(=O)CC3)c(F)c2)C(=O)O1 | 202 to 203 °C
36 | COC(=O)Nc1ccc(CN2OCC(C)(C)C2=O)c(Cl)c1 | 165 to 167 °C
37 | O=C(O)CS(=O)CC(=O)O | 118 to 119 °C
38 | O=C(Nc1c[nH]nc1C(=O)NCc1ccco1)c1ccccn1 | 198 to 199 °C
39 | C=CCOc1cc(-c2ncnc(C(F)F)c2Cl)c(F)cc1Cl | 69 to 71 °C
40 | COc1ccc(CC(=O)Nc2c(C)c(C)c3c(c2C)C(c2ccc(C(C)C)cc2)C(C)(C)O3)cc1 (stereo not drawn) | 171 to 173 °C

Row | SMILES | melting point
41 | COc1c(C(C)(C)C)cc([PH](=O)c2cc(C(C)(C)C)c(OC)c(C(C)(C)C)c2)cc1C(C)(C)C | 166 °C
42 | Clc1cc(Cl)cc(CC(Cl)CC(Cl)(Cl)Cl)c1 (stereo not drawn) | 44.5 to 46.5 °C
43 | CN(Cc1cc2c(=O)c(C(=O)NCc3ccc(Cl)cc3)cn(C)c2o1)CC(O)c1cccnc1 (stereo not drawn) | 145 to 149 °C
44 | CCC(C(=O)N(C)C)n1cc(C)c(-c2cccs2)n1 (stereo not drawn) | 83 to 85 °C
45 | CCCCC12CCC3C4CCC(=O)C=C4CCC3C1CCC2(O)CC (stereo not drawn) | 78 to 80 °C
46 | S=C(c1cc2n(c1)Cc1ccccc1-n1ccnc1-2)N1CCOCC1 | 210 to 211 °C
47 | CCCCc1nn2c(C)c(-c3ccccc3)nc2n1Cc1ccc(-c2ccccc2-c2nnn[nH]2)cc1 | 207 to 208 °C
48 | O=C(NCCCc1ccncc1)N(CCCCC(F)(F)F)CCC12CC3CC(CC(C3)C1)C2 | 117 to 119 °C
49 | [N-]=[N+]=NC1=CN(CC(F)(F)F)c2ccccc2C(c2ccccc2)=N1 | 159 to 160 °C
50 | N#Cc1cccc2c1NC(=O)C21COc2cc3c(cc21)OCO3 (stereo not drawn) | 205 to 207 °C
51 | Nc1nnnc(-c2c[nH]nn2)c1-c1cnnnn1 | 215 °C
52 | CS(=O)(=O)c1ccc(-c2[nH]nc(C(=O)CCCO[N+](=O)[O-])c2-c2ccc(C#N)cc2)cc1 | 148 to 149 °C
53 | CC(C)(O)C(O)c1cnc(C2OCCO2)s1 (stereo not drawn) | 130 to 131 °C
54 | COc1cccc(CCNC(=S)Nc2nc3ccccc3[nH]2)c1 | 161 to 167 °C
55 | CC12CC3OC3CC1CCC1C2CCC2(C)C(O)C(N3CCC(O)CC3)CC12 (stereo not drawn) | 204 to 206 °C
56 | O=c1ccoc(C(O)c2ccc(F)cc2)c1O (stereo not drawn) | 154 to 156 °C
57 | CCCCC1CCC2NC(=O)CC2C1 (stereo not drawn) | 109 to 111 °C
58 | CCCCC1(CCCC)CS(=O)(=O)c2ccc(N(C)C)cc2[C@@H](c2ccc(OCCCCC(=O)O)cc2)[C@H]1O | 76 to 79 °C

Other lines, results leading:

Row | melting point | SMILES
59 | 97 to 99 °C | CC(=O)OC1CSC(Oc2cncc(S(=O)(=O)c3ccccc3)c2)C(OC(C)=O)C1OC(C)=O (stereo not drawn)
60 | 251 to 253 °C | CNC(=O)c1ccccc1Nc1nc(Nc2cc3c(cc2OC)CCOC(=O)N3C)ncc1Br
61 | 74.2 to 75 °C | COCCCCCNC(=O)C(c1ccccc1)c1ccccc1
62 | 216 to 218 °C | OCCN1CCN(c2ccc3nc(-c4ccc(Cl)s4)c(-c4ccncc4)n3n2)CC1
63 | 190 to 191 °C | CCN(CC)CCN(CCN1CCCCC1)c1ccc(-c2nc3ccccc3[nH]2)cc1
64 | 96.2 to 96.7 °C | BrCCCCCCOc1ccc(C2c3ccc(OCc4ccccc4)cc3OCC2c2ccccc2)cc1 (stereo not drawn)
65 | 82.5 to 83.5 °C | Cc1ncoc1C(C)(N)c1ccoc1 (stereo not drawn)
66 | 115 to 117 °C | C(=C\c1nc(COc2ccc(CCCn3cnc4ccccc43)cc2)co1)/c1ccccc1
67 | 195 to 196 °C | CCCC(CCC)n1c(CC)nc2c1c(=O)n(C)c(=O)n2-c1c(C)cc(C)cc1C
68 | 194 to 195 °C | CCOC(=O)CCC1CCN(C(=O)[C@H](C)NC(=O)c2ccc(C(O)=NN)cc2)CC1
69 | 100 °C | O=S(=O)(c1ccccc1)N1CCCC1c1ccc(F)cc1 (racemic)
70 | 93 to 94 °C | CCOC(=O)c1cnc2sccc2c1Sc1nnc(C)s1
71 | 177 to 179 °C | CCCCCCCCCCCCCCCCCCS(=O)(=O)c1cc(C(=O)O)c2c(c1)c(=O)on2C
72 | 253 to 254 °C | COc1ccc(/C=C/c2nc3c(c(=O)n(C)c(=O)n3C)n2C)c(OC)c1C
73 | 184 to 186 °C | CCOc1cc2c(Nc3cc(OC)c(Cl)cc3Cl)c(C#N)cnc2cc1F
74 | 80 to 83 °C | O=C(O)CCCCc1c[nH]c2ccccc12
75 | 175 to 182 °C | O=C(c1cn(C(c2ccccc2)(c2ccccc2)c2ccccc2)cn1)c1cc(Cl)cc2c1OCOC2
76 | 117 to 119 °C | CN1CCC(c2nn(-c3ccccc3C#N)c3ccccc23)CC1
77 | 62 to 63 °C | O=[N+]([O-])c1cc(Cl)c(OCC(F)(F)C(F)(F)F)c(Cl)c1F
78 | 104 to 105 °C | CC(C)c1cc2ncsc2cc1SC1=C(O)CC(CCc2ccc(F)cc2)(C(C)C)OC1=O (stereo not drawn)

Row | melting point | SMILES
79 | 143 to 146 °C | CCCc1nn(C)c2c(=O)[nH]c(-c3ccccc3OCC)nc12
80 | 170 °C | OC1CCCc2nc3ccccc3c(NCc3ccc(F)cc3)c21 (stereo not drawn)
81 | 138 to 141 °C | CCCCn1c(=O)c(N)c(-c2cccc(OC)c2)c2cccnc21
82 | 189 to 190 °C | N#Cc1cc(-c2nc3cncnc3s2)ccc1Oc1cccc(F)c1
83 | 100 to 102 °C | COc1ccc(CCOc2cccc(-c3cccc(C(=O)O)c3)c2)cc1OC
84 | 87 to 89 °C | CCC(C)(C)NC(=O)c1cnc2cccc(C)n2c1=O
85 | 218 to 220 °C | COC(=O)c1cccc2[nH]nc(S(=O)(=O)NC(C)(C)C)c12
86 | 158 °C | COC1CN(CCCNc2ncccn2)CCC1NC(=O)C1=CC(Cl)(OC)C(N)C=C1 (stereo not drawn)
87 | 119 to 124 °C | COc1ccc(OCc2ccccn2)c(/C=C/c2cc(/C=C/c3ccc4cc[nH]c4c3)n[nH]2)c1
88 | 160 to 161 °C | COc1cc2ccccc2cc1NC(=O)N1CCN(c2cc(F)cc(F)c2)CC1
89 | 98 to 99 °C | O=C(F)c1c(Cl)ccc2cc(C(F)(F)F)cnc12
90 | 109 to 110 °C | CC(=O)OC1C(C)=C(C)C(=O)N1c1ccc(Cl)c(Cl)c1 (stereo not drawn)
91 | 47 to 49 °C | CCCCc1oc2ccccc2c1C(O)c1ccc(-c2ccc(O)cc2)cc1 (stereo not drawn)
92 | 157 to 160 °C | Cn1nc(-c2ccccc2)c(O)c1-c1ccccc1
93 | 97 to 98 °C | COc1cc(OC)nc(C(CC(=O)C(C)(C)C)C(=O)NS(C)(=O)=O)n1 (stereo not drawn)
94 | 158 °C | Cc1ccc(S(=O)(=O)N2CCCC2c2ccncc2)cc1 (racemic)
95 | 220 to 223 °C | CC(=O)NCc1ccc(C#Cc2ccc3c(c2)C(C)(C)CCC3(C)C)cc1
96 | 62 to 64 °C | CC(=O)OC(C)C=C(C)c1ccc(-c2ccccc2)cc1 (stereo not drawn)
97 | 140 °C | O=C(O)c1cc([N+](=O)[O-])cc(S(F)(F)(F)(F)F)c1
98 | 99.1 °C | COc1ccc(ON2CN=C(c3ccccc3F)O2)cc1
